Reference: publication PMC9551036, “A selective and orally bioavailable VHL-recruiting PROTAC achieves SMARCA2 degradation in vivo” (Nature Communications, 2022)
Values joined by “and” are separate entries in the source; they are usually repeats but may differ in a detail not shown here. Identical values can stand only once.

Assays:
[1] = tested on: proteome of NCI-H1568 cells; experiment: Whole cell unbiased proteomics (TMT) in NCI-H1568 cells; assay type: cell-based, human; details: for Rel. Int.: TMT reporter intensity relative to DMSO 1; for Rel. Int. / Normalised: replicates 1-3; for average: average of normalised replicates; for log2: log2 fold change vs DMSO; for Normalised: normalised relative intensity
Description: Cells were seeded at 5 × 10^6 cells on a 100 mm plate 24 h before treatment. Cells were treated in triplicate by addition of test compounds at 100 nM. After 4 h, the cells were washed twice with 10 ml cold PBS and lysed in 500 µL of 100 mM TEAB with 5% (w/v) SDS. The lysate was pulse sonicated briefly and then centrifuged at 15,000 × g for 10 min. Samples were quantified using a micro-BCA protein assay kit (Thermo Fisher Scientific). 300 µg of each sample was reduced with DTT, alkalised with iodoacetamide and double-digested with trypsin using the modified S-TRAP mini (ProtiFi) protocol. Peptide quantification was done using Pierce™ Quantitative Fluorometric Peptide Assay and equal amount from each sample was labelled using TMTpro^TM 16plex Label Reagent Set (Thermo Fisher Scientific) as per the manufacturer’s instructions. The samples were then pooled and desalted using a 7 mm, 3 mL C18 SPE cartridge column (Empore, 3 M). The pooled and desalted sample was fractionated using high pH reverse-phase chromatography on an XBridge peptide BEH column (130 Å, 3.5 μm, 2.1 × 150 mm, Waters) on an Ultimate 3000 HPLC system (Thermo Scientific/Dionex). Buffers A (10 mM ammonium formate in water, pH 9) and B (10 mM ammonium formate in 90% acetonitrile, pH 9) were used over a linear gradient of 2% to 100% buffer B over 80 min at a flow rate of 200 μL/min. 80 fractions were collected using a WPS-3000 FC auto-sampler (Thermo Scientific) before concatenation into 20 fractions based on the UV signal of each fraction. All the fractions were dried in a Genevac EZ-2 concentrator and resuspended in 1% formic acid for MS analysis. The fractions were analysed sequentially on a Q Exactive HF Hybrid Quadrupole-Orbitrap Mass Spectrometer (Thermo Scientific) coupled to an Dionex Ultimate 3000 RS (Thermo Scientific). […] The column temperature was 50 °C. The mass spectrometer was operated in data dependent mode with a single MS survey scan from 335 to 1600 m/z followed by 15 sequential m/z dependent MS2 scans. The 15 most intense precursor ions were sequentially fragmented by higher energy collision dissociation (HCD). The MS1 isolation window was set to 0.7 m/z and the resolution set at 120,000. MS2 resolution was set at 60,000. The AGC targets for MS1 and MS2 were set at 3 × 10^6 ions and 1 × 10^5 ions, respectively. The normalised collision energy was set at 32%. The maximum ion injection times for MS1 and MS2 were set at 50 ms and 200 ms, respectively. The mass accuracy was checked before the initiation of sample analysis. The raw MS data files for all 20 fractions were merged and searched against the Uniprot-sprot-Human-Canonical database (FASTA file released in November 2019) by Maxquant software 2.0.3.0 for protein identification and TMT reporter ion quantitation. The Maxquant parameters were set as follows: enzyme used Trypsin/P; maximum number of missed cleavages equal to two; precursor mass tolerance equal to 10 p.p.m.; fragment mass tolerance equal to 20 p.p.m.; variable modifications: oxidation (M), dioxidation (MW), acetyl (N-term), deamidation (NQ), Gln -> pyro-Glu (Q N-term); fixed modifications: carbamidomethyl (C). Peptide and protein data was filtered by applying a 1% false discovery rate followed by exclusion of proteins with less than two unique peptides. Quantified proteins were filtered if the absolute fold-change difference between the three DMSO replicates was ≥1.5.

[2] = Body weight / tolerability in xenograft studies; assay type: in vivo, mouse
Description: To establish subcutaneous tumours, mice were injected with 5 × 10^6 NCI-H1568 in PBS with 5% FCS or with 1 × 10^7 A549 cells in PBS with 5% FCS. Tumour diameters were measured with a caliper three times a week. The volume of each tumour (in mm^3) was calculated according to the formula [tumour volume = length × diameter^2 × π/6]. To monitor side effects of treatment, mice were inspected daily for abnormalities and body weight was determined daily after the start of treatment. Animals were sacrificed when the tumours reached a size of 1500 mm^3. Mice were randomised into treatment groups when the average tumour size reached ~210–220 mm^3. Group sizes were calculated individually for each tumour model based on tumour growth during model establishment experiments. A power analysis was performed using a sample size calculator (https://www.stat.ubc.ca/~rollin/stats/ssize/n2.html). For both models used in the study, 10 mice per group were used for each experiment. All administrations were dosed with 10 ml/kg (s.c. and oral). Control mice were dosed subcutaneously with 10% HP-β-CD in 50% Ringer solution and orally with 15% HP-β-CD, that means the control mouse treatment was corresponding to the solvent of the compounds. Compound 6 was dosed subcutaneously either in a d1-4 q3d, d6-8 q2d, d11-13 q2d treatment (Treatment 1) or a q3 or 4d treatment (Treatment 2).

[3] = protein SIK1 (LOC102724428;SIK1)

Compound	-logP [1]	Rel. Int. ([1]; protein BRPF1 (P55201))	average ([1]; protein BRPF1 (P55201))	log2 ([1]; protein BRPF1 (P55201))	Normalised ([1]; protein BRPF1 (P55201))	Rel. Int. ([1]; protein ETS1 (P14921))	average ([1]; protein ETS1 (P14921))	log2 ([1]; protein ETS1 (P14921))	Normalised ([1]; protein ETS1 (P14921))	Rel. Int. ([1]; protein PBRM1 (Q86U86))	average ([1]; protein PBRM1 (Q86U86))	log2 ([1]; protein PBRM1 (Q86U86))	Normalised ([1]; protein PBRM1 (Q86U86))	Rel. Int. [1, 3]	average [1, 3]	log2 [1, 3]	Normalised [1, 3]	Rel. Int. ([1]; protein SMARCA2 (P51531))	average ([1]; protein SMARCA2 (P51531))	log2 ([1]; protein SMARCA2 (P51531))	also measured
Cc1ncsc1-c1ccc([C@H](CC[C@H](C)CCN2CCC(c3ccc4c(c3)n(C3CCCC3)c3nc(=O)c5c(Br)cccc5n43)CC2)NC(=O)[C@@H]2C[C@H](O)CN2C(=O)[C@@H](NC(=O)C2(F)CC2)C(C)(C)C)cc1 [compound 12]	0.0276	0.90 and 0.91 (2×)	0.99	-0.0113	0.98 (2×) and 1.02	0.94 and 0.98 and 0.91	1.03	0.05	1.04 and 1.05 and 1.02	0.85 and 0.92 and 0.84	0.95	-0.07	0.93 and 0.98 and 0.94	0.93 and 0.92 and 0.88	1.00	-0.00277	1.02 and 0.98 and 0.99	0.90 and 0.92 and 0.88	0.99	-0.0184	Normalised ([1]; protein SMARCA2 (P51531)): 0.99 (2×) and 0.98
Cc1ncsc1-c1ccc(C(CCC(C)CCN2CCC(c3ccc4c(c3)n(C3CCCC3)c3nc(=O)c5c(Br)cccc5n43)CC2)NC(=O)C2CC(O)CN2C(=O)C(NC(=O)C2(F)CC2)C(C)(C)C)cc1 (centres unmarked) [ACBI2]	4.42	0.86 and 0.73 and 0.58	0.72	-0.46	0.74 and 0.73 and 0.70	1.29 and 1.11 and 0.95	1.13	0.17	1.12 (2×) and 1.14	0.41 and 0.40 and 0.32	0.38	-1.40	0.36 and 0.40 and 0.39	1.44 and 1.21 and 1.03	1.24	0.30	1.25 and 1.21 and 1.24	0.52 and 0.45 and 0.40	0.46	-1.12	tolerability ([2]; A549 xenograft, 80 mg/kg p.o. once daily): well tolerated; Normalised ([1]; protein SMARCA2 (P51531)): 0.45 and 0.46 and 0.48
Cc1ncsc1-c1ccc([C@H](CCCCCN2CCC(c3ccc4c(c3)n(C3CCCC3)c3nc(=O)c5c(Br)cccc5n43)CC2)NC(=O)[C@@H]2C[C@@H](O)CN2C(=O)[C@@H](NC(=O)C2(F)CC2)C(C)(C)C)cc1 [compound 11]																					tolerability ([2]; NCI-H1568 xenograft efficacy study, body weight changes): well tolerated
